Source: PubChem BioAssay (NCI)
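At the GI50, growth is halved. TGI: total growth inhibition.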

Tests used:
Test in all cases: inhibition of tumour cell growth, NCI panel, 384-well format
A498 renal = test system: A498 renal
A549 NSCLC = test system: A549 NSCLC
ACHN renal = test system: ACHN renal
BT-549 breast = test system: BT-549 breast
CAKI-1 renal = test system: CAKI-1 renal
COLO 205 colon = test system: COLO 205 colon
DU-145 prostate = test system: DU-145 prostate
EKVX NSCLC = test system: EKVX NSCLC
HCC-2998 colon = test system: HCC-2998 colon
HCT-116 colon = test system: HCT-116 colon
HCT-15 colon = test system: HCT-15 colon
HL-60(TB) leukemia = test system: HL-60(TB) leukemia
HOP-62 NSCLC = test system: HOP-62 NSCLC
HOP-92 NSCLC = test system: HOP-92 NSCLC
HS 578T breast = test system: HS 578T breast
HT29 colon = test system: HT29 colon
IGROV1 ovarian = test system: IGROV1 ovarian
KM12 colon = test system: KM12 colon
LOX IMVI melanoma = test system: LOX IMVI melanoma
M14 melanoma = test system: M14 melanoma
MALME-3M melanoma = test system: MALME-3M melanoma
MCF7 breast = test system: MCF7 breast
MDA-MB-231 breast = test system: MDA-MB-231 breast
MDA-MB-435 melanoma = test system: MDA-MB-435 melanoma
MDA-MB-468 breast = test system: MDA-MB-468 breast
MOLT-4 leukemia = test system: MOLT-4 leukemia
NCI-H226 lung = test system: NCI-H226 lung
NCI-H23 lung = test system: NCI-H23 lung
NCI-H322M lung = test system: NCI-H322M lung
NCI-H460 NSCLC = test system: NCI-H460 NSCLC
NCI-H522 lung = test system: NCI-H522 lung
NCI/ADR-RES ovarian = test system: NCI/ADR-RES ovarian
OVCAR-3 ovarian = test system: OVCAR-3 ovarian
OVCAR-4 ovarian = test system: OVCAR-4 ovarian
OVCAR-5 ovarian = test system: OVCAR-5 ovarian
OVCAR-8 ovarian = test system: OVCAR-8 ovarian
PC-3 prostate = test system: PC-3 prostate
RXF 393 renal = test system: RXF 393 renal
SF-268 CNS = test system: SF-268 CNS
SF-295 CNS = test system: SF-295 CNS
SF-539 CNS = test system: SF-539 CNS
SK-MEL-28 melanoma = test system: SK-MEL-28 melanoma
SK-MEL-5 melanoma = test system: SK-MEL-5 melanoma
SK-OV-3 ovarian = test system: SK-OV-3 ovarian
SN12C renal = test system: SN12C renal
SNB-19 CNS = test system: SNB-19 CNS
SNB-75 CNS = test system: SNB-75 CNS
SR leukemia = test system: SR leukemia
T-47D breast = test system: T-47D breast
TK-10 renal = test system: TK-10 renal
U251 glioblastoma = test system: U251 glioblastoma
UACC-257 melanoma = test system: UACC-257 melanoma
UACC-62 melanoma = test system: UACC-62 melanoma

Compound: O=C(NO)c1cnc(N2CCN(S(=O)(=O)c3ccc4ccccc4c3)CC2)nc1
- GI50 (A498 renal): 69.7 nM
- TGI (A498 renal): 205 nM
- GI50 (A549 NSCLC): 69.2 nM
- TGI (A549 NSCLC): 229 nM
- GI50 (ACHN renal): 139 nM
- TGI (ACHN renal): 294 nM
- GI50 (BT-549 breast): 128 nM
- TGI (BT-549 breast): 319 nM
- GI50 (CAKI-1 renal): 94.7 nM
- TGI (CAKI-1 renal): 222 nM
- GI50 (COLO 205 colon): 129 nM
- TGI (COLO 205 colon): 263 nM
- GI50 (DU-145 prostate): 29.4 nM
- TGI (DU-145 prostate): 95 nM
- GI50 (EKVX NSCLC): 200 nM
- TGI (EKVX NSCLC): 911 nM
- GI50 (HCC-2998 colon): 52.5 nM
- TGI (HCC-2998 colon): 188 nM
- GI50 (HCT-116 colon): 32 nM
- TGI (HCT-116 colon): 120 nM
- GI50 (HCT-15 colon): 98.2 nM
- TGI (HCT-15 colon): 272 nM
- GI50 (HL-60(TB) leukemia): 15 nM
- TGI (HL-60(TB) leukemia): 28.7 nM
- GI50 (HOP-62 NSCLC): 69 nM
- TGI (HOP-62 NSCLC): 263 nM
- GI50 (HOP-92 NSCLC): 102 nM
- TGI (HOP-92 NSCLC): 310 nM
- GI50 (HS 578T breast): 86 nM
- TGI (HS 578T breast): 219 nM
- GI50 (HT29 colon): 61.1 nM
- TGI (HT29 colon): 197 nM
- GI50 (IGROV1 ovarian): 65.8 nM
- TGI (IGROV1 ovarian): 195 nM
- GI50 (KM12 colon): 113 nM
- TGI (KM12 colon): 467 nM
- GI50 (LOX IMVI melanoma): 47.2 nM
- TGI (LOX IMVI melanoma): 157 nM
- GI50 (M14 melanoma): 49.9 nM
- TGI (M14 melanoma): 171 nM
- GI50 (MALME-3M melanoma): 25.8 nM
- TGI (MALME-3M melanoma): 124 nM
- GI50 (MCF7 breast): 44.6 nM
- TGI (MCF7 breast): 205 nM
- GI50 (MDA-MB-231 breast): 129 nM
- TGI (MDA-MB-231 breast): 343 nM
- GI50 (MDA-MB-435 melanoma): 125 nM
- TGI (MDA-MB-435 melanoma): 283 nM
- GI50 (MDA-MB-468 breast): 68.4 nM
- TGI (MDA-MB-468 breast): 384 nM
- GI50 (MOLT-4 leukemia): 18.1 nM
- TGI (MOLT-4 leukemia): 32.4 nM
- GI50 (NCI-H226 lung): 136 nM
- TGI (NCI-H226 lung): 288 nM
- GI50 (NCI-H23 lung): 93.4 nM
- TGI (NCI-H23 lung): 334 nM
- GI50 (NCI-H322M lung): 79.2 nM
- TGI (NCI-H322M lung): 261 nM
- GI50 (NCI-H460 NSCLC): 30.8 nM
- TGI (NCI-H460 NSCLC): 138 nM
- GI50 (NCI-H522 lung): 40.7 nM
- TGI (NCI-H522 lung): 163 nM
- GI50 (NCI/ADR-RES ovarian): 15.5 nM
- TGI (NCI/ADR-RES ovarian): 42.3 nM
- GI50 (OVCAR-3 ovarian): 89.6 nM
- TGI (OVCAR-3 ovarian): 216 nM
- GI50 (OVCAR-4 ovarian): 140 nM
- TGI (OVCAR-4 ovarian): 327 nM
- GI50 (OVCAR-5 ovarian): 37 nM
- TGI (OVCAR-5 ovarian): 137 nM
- GI50 (OVCAR-8 ovarian): 19.2 nM
- TGI (OVCAR-8 ovarian): 140 nM
- GI50 (PC-3 prostate): 56.7 nM
- TGI (PC-3 prostate): 239 nM
- GI50 (RXF 393 renal): 121 nM
- TGI (RXF 393 renal): 263 nM
- GI50 (SF-268 CNS): 102 nM
- TGI (SF-268 CNS): 246 nM
- GI50 (SF-295 CNS): 119 nM
- TGI (SF-295 CNS): 249 nM
- GI50 (SF-539 CNS): 82.4 nM
- TGI (SF-539 CNS): 409 nM
- GI50 (SK-MEL-28 melanoma): 39.6 nM
- TGI (SK-MEL-28 melanoma): 146 nM
- GI50 (SK-MEL-5 melanoma): 29.8 nM
- TGI (SK-MEL-5 melanoma): 61.2 nM
- GI50 (SK-OV-3 ovarian): 85.4 nM
- TGI (SK-OV-3 ovarian): 237 nM
- GI50 (SN12C renal): 109 nM
- TGI (SN12C renal): 233 nM
- GI50 (SNB-19 CNS): 154 nM
- TGI (SNB-19 CNS): 299 nM
- GI50 (SNB-75 CNS): 166 nM
- TGI (SNB-75 CNS): 1260 nM
- GI50 (SR leukemia): 13.5 nM
- TGI (SR leukemia): 42.4 nM
- GI50 (T-47D breast): 38.9 nM
- TGI (T-47D breast): 168 nM
- GI50 (TK-10 renal): 64 nM
- TGI (TK-10 renal): 229 nM
- GI50 (U251 glioblastoma): 50.4 nM
- TGI (U251 glioblastoma): 170 nM
- GI50 (UACC-257 melanoma): 23.8 nM
- TGI (UACC-257 melanoma): 85.3 nM
- GI50 (UACC-62 melanoma): 41.7 nM
- TGI (UACC-62 melanoma): 154 nM
